Columns and labels:
[1] = test system: Cells stably expressing Amyloid Precursor Protein (APP); assay: In vitro BACE cell-based assay (HEK cell assay): Aβ40 in conditioned medium by sandwich ELISA; conditions: Aβ40 in conditioned medium after 24 h incubation
Method: In Vitro BACE Cell-Based Assay:
The cell-based assay measures inhibition or reduction of Aβ40 in conditioned medium of test compound treated cells expressing amyloid precursor protein.
Cells stably expressing Amyloid Precursor Protein (APP) were plated at a density of 40K cells/well in 96 well plates (Costar). The cells were cultivated for 24 hours at 37° C. and 5% CO2 in DMEM supplemented with 10% FBS. The test compounds were then added to cells in 10-point dose response concentrations with the starting concentration being either 100 μM or 10 μM. The compounds were diluted from stock solutions in DMSO and the final DMSO concentration of the test compounds on cells was 0.1%. After 24 h of incubation with the test compounds the supernatant conditioned media was collected and the Aβ 40 levels were determined using a sandwich ELISA. The IC50 of the compound was calculated from the percent of control or percent inhibition of Aβ 40 as a function of the concentration of the test compound.
The sandwich ELISA to detect Aβ 40 was performed in 96 well microtiter plates, which were pre-treated with goat anti-rabbit IgG (Pierce). The capture and detecting antibody pair that were used to detect Aβ 40 from cell supernatants were affinity purified pAb40 (Biosource) and biotinylated 6E10 (Signet Labs Inc.), respectively. The optimal concentration for the pAb40 antibody was 3 μg/ml in Superblock/TBS (Pierce) that was supplemented with 0.05% Tween 20 (Sigma). Optimal concentration for the detection antibody 6E10-biotinylated was 0.5 μg/ml in Superblock/TBS (Pierce) that had been supplemented with 2% normal goat serum and 2% normal mouse serum.
Cellular supernatants were incubated with the capture antibody for 3 h at 4° C., followed by 3 wash steps in TBS-tween (0.05%). The detecting antibody incubation was for 2 h at 4° C., again followed by the wash steps as described previously. The final readout of the ELISA is Time-Resolved Fluorescence (counts per minute) using Delfia reagents Streptavidin-Europium and Enhancement solutions (Perkin Elmer) and the Victor 2 multilabel counter (Perkin Elmer).
Of the compounds tested, in-the cell-based assay, data for each of Examples 33-156 is provided in Table 1 and Examples 208-246 are provided in Table 4.

BACE1 = BACE1 (Homo sapiens, UniProt P56817); assay: In vitro enzymatic BACE FRET (fluorescence resonance energy transfer) assay; format: biochemical
Method: In Vitro Enzymatic BACE FRET (Fluorescence Resonance Energy Transfer) Assay (Enzyme Assay Data in Table 1)
The assay buffer used in this screen is 0.05 M acetate, pH 4.2, 10% DMSO final, 100 uM genapol (which is a nonionic detergent, below its Critical Micelle Concentration). […] The assay is effectively started by the addition of FRET substrate (50 nM) and the combination is incubated for one hour. The FRET assay is terminated with by addition of Tris buffer, which raises the pH to neutrality, and the fluorescence is determined. The FRET substrate is a peptide with commercially available fluorophore and quencher, on opposite sides of the BACE cleavage site. Proteolytic cleavage of the FRET substrate releases quenching of fluorescence (excitation […] and emission […]).

Sequence of BACE1 (P56817 46-501, species assumed): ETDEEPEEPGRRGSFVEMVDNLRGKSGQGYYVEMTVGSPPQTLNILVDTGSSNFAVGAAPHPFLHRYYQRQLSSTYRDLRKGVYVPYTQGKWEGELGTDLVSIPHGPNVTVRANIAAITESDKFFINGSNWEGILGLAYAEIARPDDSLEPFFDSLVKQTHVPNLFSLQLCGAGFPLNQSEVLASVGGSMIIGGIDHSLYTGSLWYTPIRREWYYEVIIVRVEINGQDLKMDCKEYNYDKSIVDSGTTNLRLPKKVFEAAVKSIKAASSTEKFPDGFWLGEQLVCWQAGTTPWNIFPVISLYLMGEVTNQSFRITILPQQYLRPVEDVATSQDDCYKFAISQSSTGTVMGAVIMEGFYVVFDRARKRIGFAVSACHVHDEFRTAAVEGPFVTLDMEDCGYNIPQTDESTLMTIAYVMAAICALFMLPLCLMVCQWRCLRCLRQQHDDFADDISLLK

Row | SMILES | IC50 [1] [nM] | IC50 (BACE1) [nM] | IC50 ([1]; Homo sapiens, HEK293, 24 h) [nM] | IC50 ([1]; Homo sapiens, HEK293) [nM]
1 | CC=CC[C@H](NC(=O)COC)[C@H](O)CN[C@H]1CC2(CC(F)C2)Oc2ncc(CC(C)(C)C)cc21 (stereo partly drawn) [Example 110, N-((1S)-1-((1R)-2-(((1s,3S,4′S)-6′-(2,2-dimethylpropyl)-3-fluoro-3′,4′-dihydrospiro[cyclobutane-1,2′-pyrano[2,3-b]pyridin]-4′-yl)amino)-1-hydroxyethyl)-3-penten-1-yl)-2-(methyloxy)acetamide] | 293 | 40 | – | –
2 | C=CC[C@H](NC(=O)c1c(F)cccc1F)[C@H](O)CN[C@H]1CC2(CCC2)Oc2ncc(CC(C)(C)C)cc21 [Example 72, N-((1S)-1-((1R)-2-(((4′S)-6′-(2,2-dimethylpropyl)-3′,4′-dihydrospiro[cyclobutane-1,2′-pyrano[2,3-b]pyridin]-4′-yl)amino)-1-hydroxyethyl)-3-buten-1-yl)-2,6-difluorobenzamide] | – | 276 | 3570 | –
3 | C=CC[C@H](NC(C)=O)[C@H](O)CN[C@H]1CC2(CCC2)Oc2ncc(CC(C)C)cc21 [Example 38, N-((1S)-1-((1R)-1-hydroxy-2-(((4′S)-6′-(2-methylpropyl)-3′,4′-dihydrospiro[cyclobutane-1,2′-pyrano[2,3-b]pyridin]-4′-yl)amino)ethyl)-3-buten-1-yl)acetamide] | – | 81 | 85 | –
4 | C=CCC(NC(C)=O)C(O)CNC1CC2(CC(O)C2)Oc2ccc(CC(C)(C)C)cc21 [Example 115, N-((1S)-1-((1R)-2-(((2s,3′S,4S)-6-(2,2-dimethylpropyl)-3′-hydroxy-3,4-dihydrospiro[chromene-2,1′-cyclobutan]-4-yl)amino)-1-hydroxyethyl)-3-buten-1-yl)acetamide] | 513 | 335 | – | –
5 | C=CC[C@H](NC(=O)c1ccc2c(c1)OCO2)[C@H](O)CN[C@H]1CC2(CCC2)Oc2ncc(CC(C)(C)C)cc21 [Example 102, N-((1S)-1-((1R)-2-(((4′S)-6′-(2,2-dimethylpropyl)-3′,4′-dihydrospiro[cyclobutane-1,2′-pyrano[2,3-b]pyridin]-4′-yl)amino)-1-hydroxyethyl)-3-buten-1-yl)-1,3-benzodioxole-5-carboxamide] | – | 75 | 707 | –
6 | C=CC[C@H](NC(=O)c1cnccn1)[C@H](O)CN[C@H]1CC2(CCC2)Oc2ncc(CC(C)(C)C)cc21 [Example 98, N-((1S)-1-((1R)-2-(((4′S)-6′-(2,2-dimethylpropyl)-3′,4′-dihydrospiro[cyclobutane-1,2′-pyrano[2,3-b]pyridin]-4′-yl)amino)-1-hydroxyethyl)-3-buten-1-yl)-2-pyrazinecarboxamide] | – | 741 | 1680 | –
7 | C=CC[C@H](NC(=O)c1cc(F)c(F)cc1F)[C@H](O)CN[C@H]1CC2(CCC2)Oc2ncc(CC(C)(C)C)cc21 [Example 77, N-((1S)-1-((1R)-2-(((4′S)-6′-(2,2-dimethylpropyl)-3′,4′-dihydrospiro[cyclobutane-1,2′-pyrano[2,3-b]pyridin]-4′-yl)amino)-1-hydroxyethyl)-3-buten-1-yl)-2,4,5-trifluorobenzamide] | – | 440 | 3310 | –
8 | C=CCC(NC(=O)C1CC1OCC)C(O)CNC1CC2(CCC2)Oc2ncc(CC(C)(C)C)cc21 [Example 153, (1R,2R)-N-((1S)-1-((1R)-2-(((4′S)-6′-(2,2-dimethylpropyl)-3′,4′-dihydrospiro[cyclobutane-1,2′-pyrano[2,3-b]pyridin]-4′-yl)amino)-1-hydroxyethyl)-3-buten-1-yl)-2-(ethyloxy)cyclopropanecarboxamide; (1S,2S)-N-((1S)-1-((1R)-2-(((4′S)-6′-(2,2-dimethylpropyl)-3′,4′-dihydrospiro[cyclobutane-1,2′-pyrano[2,3-b]pyridin]-4′-yl)amino)-1-hydroxyethyl)-3-buten-1-yl)-2-(ethyloxy)cyclopropanecarboxamide] | – | 104 | 129 | –
9 | C=CC[C@H](NC(=O)C1CC(=O)N(C2CCC2)C1)[C@H](O)CN[C@H]1CC2(CCC2)Oc2ncc(CC(C)C)cc21 (stereo partly drawn) [Example 40, 1-cyclobutyl-N-((1S)-1-((1R)-1-hydroxy-2-(((4′S)-6′-(2-methylpropyl)-3′,4′-dihydrospiro[cyclobutane-1,2′-pyrano[2,3-b]pyridin]-4′-yl)amino)ethyl)-3-buten-1-yl)-5-oxo-3-pyrrolidinecarboxamide] | – | 6 | 6 | –
10 | C=CC[C@H](NC(=O)[C@@H](CC)OC)[C@H](O)CN[C@H]1CC2(CCC2)Oc2ncc(CC(C)(C)C)cc21 [Example 146, (2R)-N-((1S)-1-((1R)-2-(((4′S)-6′-(2,2-dimethylpropyl)-3′,4′-dihydrospiro[cyclobutane-1,2′-pyrano[2,3-b]pyridin]-4′-yl)amino)-1-hydroxyethyl)-3-buten-1-yl)-2-(methyloxy)butanamide] | – | 565 | 247 | –
11 | C=CC[C@H](NC(C)=O)[C@H](O)CN[C@H]1CC2(CCC2)Oc2ncc(CC(C)(F)F)cc21 [Example 120, N-((1S)-1-((1R)-2-(((4′S)-6′-(2,2-difluoropropyl)-3′,4′-dihydrospiro[cyclobutane-1,2′-pyrano[2,3-b]pyridin]-4′-yl)amino)-1-hydroxyethyl)-3-buten-1-yl)acetamide] | – | 194 | 64 | –
12 | C=CC[C@H](NC(=O)[C@@H](C)F)[C@H](O)CN[C@H]1CC2(CCC2)Oc2ncc(CC(C)(C)C)cc21.C=CC[C@H](NC(=O)[C@H](C)F)[C@H](O)CN[C@H]1CC2(CCC2)Oc2ncc(CC(C)(C)C)cc21 [Example 148, (2R)-N-((1S)-1-((1R)-2-(((4′S)-6′-(2,2-dimethylpropyl)-3′,4′-dihydrospiro[cyclobutane-1,2′-pyrano[2,3-b]pyridin]-4′-yl)amino)-1-hydroxyethyl)-3-buten-1-yl)-2-fluoropropanamide; (2S)-N-((1S)-1-((1R)-2-(((4′S)-6′-(2,2-dimethylpropyl)-3′,4′-dihydrospiro[cyclobutane-1,2′-pyrano[2,3-b]pyridin]-4′-yl)amino)-1-hydroxyethyl)-3-buten-1-yl)-2-fluoropropanamide] | 121 | 70 | – | –
13 | C=CC[C@H](NC(=O)c1cccc(F)c1F)[C@H](O)CN[C@H]1CC2(CCC2)Oc2ncc(CC(C)(C)C)cc21 [Example 69, N-((1S)-1-((1R)-2-(((4′S)-6′-(2,2-dimethylpropyl)-3′,4′-dihydrospiro[cyclobutane-1,2′-pyrano[2,3-b]pyridin]-4′-yl)amino)-1-hydroxyethyl)-3-buten-1-yl)-2,3-difluorobenzamide] | – | 155 | 121 | –
14 | C=CC[C@H](NC(=O)[C@H](OC)C(C)C)[C@H](O)CN[C@H]1CC2(CCC2)Oc2ncc(CC(C)(C)C)cc21 [Example 150, (2R)-N-((1S)-1-((1R)-2-(((4′S)-6′-(2,2-dimethylpropyl)-3′,4′-dihydrospiro[cyclobutane-1,2′-pyrano[2,3-b]pyridin]-4′-yl)amino)-1-hydroxyethyl)-3-buten-1-yl)-3-methyl-2-(methyloxy)butanamide] | – | 2670 | 5280 | –
15 | C=CC[C@H](NC(=O)c1cccs1)[C@H](O)CN[C@H]1CC2(CCC2)Oc2ncc(CC(C)(C)C)cc21 [Example 128, N-((1S)-1-((1R)-2-(((4′S)-6′-(2,2-dimethylpropyl)-3′,4′-dihydrospiro[cyclobutane-1,2′-pyrano[2,3-b]pyridin]-4′-yl)amino)-1-hydroxyethyl)-3-buten-1-yl)-2-thiophenecarboxamide] | – | 169 | 1320 | –
16 | C=CCC(NC(=O)CF)C(O)CNC1CC2(CC(O)C2)Oc2ncc(CC(C)(C)C)cc21 [Example 111, N-((1S)-1-((1R)-2-(((1s,3S,4′S)-6′-(2,2-dimethylpropyl)-3-hydroxy-3′,4′-dihydrospiro[cyclobutane-1,2′-pyrano[2,3-b]pyridin]-4′-yl)amino)-1-hydroxyethyl)-3-buten-1-yl)-2-fluoroacetamide] | – | 20 | – | 65
